Laboratory results as given in US20260207578A1, “COMPOUND BASED ON SULFUR/OXYGEN SUBSTITUTED GLUTARIMIDE-BASED ISOINDOLINONE SKELETON AND USE THEREOF” (Gluetacs Therapeutics (Shanghai) Co., LTD., priority 2022, published 2026).

Assays:
IKZF3 = target: T1, IKZF3 (Homo sapiens, UniProt Q96SW2+Q9UKT9); test: Western-blot assay, substrate protein in hPBMCs; assay type: cell-based; details: hPBMC cells, 24 hours, tested at 50 nM and 500 nM, table does not say which
T1 construct: endogenous in cells; host or cells: human PBMCs (Milecell Biotechnologies)
T1 sequence (Q9UKT9 whole entry): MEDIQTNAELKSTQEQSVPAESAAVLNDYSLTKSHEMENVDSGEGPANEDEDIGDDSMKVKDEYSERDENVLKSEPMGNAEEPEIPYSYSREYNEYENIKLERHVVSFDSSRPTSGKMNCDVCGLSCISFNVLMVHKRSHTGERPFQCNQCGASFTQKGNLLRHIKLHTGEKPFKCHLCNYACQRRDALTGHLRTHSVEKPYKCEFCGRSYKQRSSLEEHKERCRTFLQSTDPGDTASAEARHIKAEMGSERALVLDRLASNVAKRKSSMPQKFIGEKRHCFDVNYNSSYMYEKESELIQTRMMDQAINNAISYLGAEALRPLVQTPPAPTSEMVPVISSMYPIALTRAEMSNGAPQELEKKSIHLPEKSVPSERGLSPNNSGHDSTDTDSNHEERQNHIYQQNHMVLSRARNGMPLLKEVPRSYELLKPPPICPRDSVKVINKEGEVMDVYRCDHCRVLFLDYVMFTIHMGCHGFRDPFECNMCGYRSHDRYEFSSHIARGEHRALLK
T1 sequence (Q96SW2 whole entry): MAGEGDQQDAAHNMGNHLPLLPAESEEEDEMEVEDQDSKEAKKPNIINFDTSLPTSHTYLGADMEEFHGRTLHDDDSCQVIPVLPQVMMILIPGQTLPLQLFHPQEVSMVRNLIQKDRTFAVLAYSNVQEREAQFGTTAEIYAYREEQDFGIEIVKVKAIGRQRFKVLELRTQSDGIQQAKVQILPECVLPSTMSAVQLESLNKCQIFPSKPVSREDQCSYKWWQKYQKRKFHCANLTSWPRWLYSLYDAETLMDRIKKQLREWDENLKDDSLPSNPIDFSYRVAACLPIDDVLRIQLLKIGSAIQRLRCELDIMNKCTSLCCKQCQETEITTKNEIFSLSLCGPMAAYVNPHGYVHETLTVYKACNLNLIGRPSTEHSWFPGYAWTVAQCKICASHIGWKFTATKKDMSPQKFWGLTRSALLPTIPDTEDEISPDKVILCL
T1 sequence (Q16531 whole entry partner): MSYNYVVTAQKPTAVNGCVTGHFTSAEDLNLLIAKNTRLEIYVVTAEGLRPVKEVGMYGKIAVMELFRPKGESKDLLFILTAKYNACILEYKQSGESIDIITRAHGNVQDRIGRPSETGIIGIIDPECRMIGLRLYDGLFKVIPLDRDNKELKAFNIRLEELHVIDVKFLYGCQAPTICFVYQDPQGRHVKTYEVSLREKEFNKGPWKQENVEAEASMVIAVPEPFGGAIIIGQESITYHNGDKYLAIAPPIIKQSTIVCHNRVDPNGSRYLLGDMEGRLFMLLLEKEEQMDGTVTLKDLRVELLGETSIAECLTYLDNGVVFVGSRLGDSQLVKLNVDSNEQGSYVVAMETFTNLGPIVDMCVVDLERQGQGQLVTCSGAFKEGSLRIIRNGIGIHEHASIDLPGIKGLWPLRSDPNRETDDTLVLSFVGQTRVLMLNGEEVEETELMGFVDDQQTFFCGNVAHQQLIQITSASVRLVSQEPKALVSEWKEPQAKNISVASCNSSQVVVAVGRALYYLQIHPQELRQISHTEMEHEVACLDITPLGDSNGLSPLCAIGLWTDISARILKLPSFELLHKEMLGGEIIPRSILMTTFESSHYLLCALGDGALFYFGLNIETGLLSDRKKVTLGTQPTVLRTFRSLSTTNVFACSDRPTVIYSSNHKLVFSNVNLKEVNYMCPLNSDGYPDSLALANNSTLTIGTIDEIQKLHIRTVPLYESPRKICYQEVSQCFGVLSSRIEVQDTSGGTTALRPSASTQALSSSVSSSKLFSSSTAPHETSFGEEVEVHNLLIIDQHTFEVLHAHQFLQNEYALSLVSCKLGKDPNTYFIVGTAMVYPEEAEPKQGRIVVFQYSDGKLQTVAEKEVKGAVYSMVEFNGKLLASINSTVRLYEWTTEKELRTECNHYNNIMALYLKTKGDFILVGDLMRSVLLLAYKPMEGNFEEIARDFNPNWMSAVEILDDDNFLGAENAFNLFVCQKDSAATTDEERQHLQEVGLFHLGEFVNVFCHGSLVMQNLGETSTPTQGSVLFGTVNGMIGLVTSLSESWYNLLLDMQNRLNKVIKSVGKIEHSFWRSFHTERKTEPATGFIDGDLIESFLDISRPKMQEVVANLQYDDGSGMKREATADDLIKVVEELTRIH
How it was run: (§1)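 hPBMCs (1×10^6 cells/mL) exposed 24 h to compound at 50 nM and 500 nM, lysed, and probed by Western blot. Band grayscale normalized to internal control gives % protein remaining versus DMSO; DC50 from concentration-response fit at half DMSO band intensity.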

IKZF1 = target: T2, IKZF1 (Homo sapiens, UniProt Q13422+Q96SW2); test: Western-blot assay, substrate protein in hPBMCs; assay type: cell-based; details: hPBMC cells, 24 hours, tested at 50 nM and 500 nM, table does not say which
T2 construct: endogenous in cells; host or cells: human PBMCs (Milecell Biotechnologies)
T2 sequence (Q13422 whole entry): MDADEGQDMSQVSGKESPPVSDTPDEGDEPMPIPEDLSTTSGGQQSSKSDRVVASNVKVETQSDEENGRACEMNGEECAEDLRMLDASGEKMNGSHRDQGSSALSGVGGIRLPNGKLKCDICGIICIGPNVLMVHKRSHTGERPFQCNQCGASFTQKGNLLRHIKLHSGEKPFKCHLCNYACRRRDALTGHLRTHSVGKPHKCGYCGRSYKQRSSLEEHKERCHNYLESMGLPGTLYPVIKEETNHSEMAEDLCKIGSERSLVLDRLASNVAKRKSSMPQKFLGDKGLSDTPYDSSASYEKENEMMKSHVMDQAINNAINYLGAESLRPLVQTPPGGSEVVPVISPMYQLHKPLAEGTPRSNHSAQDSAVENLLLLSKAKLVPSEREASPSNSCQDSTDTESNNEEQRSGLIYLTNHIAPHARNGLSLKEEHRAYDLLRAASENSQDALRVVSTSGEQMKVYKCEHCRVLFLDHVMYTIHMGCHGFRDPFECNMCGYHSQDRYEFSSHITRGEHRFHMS
T2 sequence (Q96SW2 whole entry): as the sequence (Q96SW2 whole entry) above
T2 sequence (Q16531 whole entry partner): as the sequence (Q16531 whole entry partner) above
How it was run: as §1

Wee1 = target: T3, Wee1 (Homo sapiens, UniProt P30291+Q96SW2); test: Western-blot assay, substrate protein in hPBMCs; assay type: cell-based; details: hPBMC cells, 24 hours, tested at 50 nM and 500 nM, table does not say which
T3 construct: endogenous in cells; host or cells: human PBMCs (Milecell Biotechnologies)
How it was run: (§2)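 Steps: treat hPBMCs 24 h; lyse on ice in RIPA with phosphatase inhibitors; quantify protein by BCA; denature at 95 °C and blot. Remaining protein (%) is the target/internal-control band ratio, normalised; degradation rate is its complement.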

IKZF2 = target: T4, IKZF2 (Homo sapiens, UniProt Q96SW2+Q9UKS7); test: Western-blot assay, substrate protein in hPBMCs; assay type: cell-based; details: hPBMC cells, 24 hours, tested at 50 nM and 500 nM, table does not say which
T4 construct: endogenous in cells; host or cells: human PBMCs (Milecell Biotechnologies)
T4 sequence (Q9UKS7 whole entry): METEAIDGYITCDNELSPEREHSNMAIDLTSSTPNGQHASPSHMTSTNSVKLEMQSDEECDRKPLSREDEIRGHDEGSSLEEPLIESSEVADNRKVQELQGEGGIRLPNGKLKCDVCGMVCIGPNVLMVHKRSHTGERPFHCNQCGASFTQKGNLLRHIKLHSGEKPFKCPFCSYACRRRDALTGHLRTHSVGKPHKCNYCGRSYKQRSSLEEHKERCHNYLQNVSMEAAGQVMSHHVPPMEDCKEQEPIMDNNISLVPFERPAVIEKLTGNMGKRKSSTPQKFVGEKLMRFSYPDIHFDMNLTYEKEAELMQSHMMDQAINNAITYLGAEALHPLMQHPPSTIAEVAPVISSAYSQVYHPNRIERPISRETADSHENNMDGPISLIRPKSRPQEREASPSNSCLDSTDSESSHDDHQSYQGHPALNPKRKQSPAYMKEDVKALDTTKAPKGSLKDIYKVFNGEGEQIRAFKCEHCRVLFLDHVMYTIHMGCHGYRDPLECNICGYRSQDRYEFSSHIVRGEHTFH
T4 sequence (Q96SW2 whole entry): as the sequence (Q96SW2 whole entry) above
T4 sequence (Q16531 whole entry partner): as the sequence (Q16531 whole entry partner) above
How it was run: as §2

GSPT1 = target: T5, GSPT1 (Homo sapiens, UniProt P15170+Q96SW2); test: Western-blot assay, substrate protein in hPBMCs; assay type: cell-based; details: hPBMC cells, 24 hours, tested at 50 nM and 500 nM, table does not say which
T5 construct: endogenous in cells; host or cells: human PBMCs (Milecell Biotechnologies)
T5 sequence (P15170 whole entry): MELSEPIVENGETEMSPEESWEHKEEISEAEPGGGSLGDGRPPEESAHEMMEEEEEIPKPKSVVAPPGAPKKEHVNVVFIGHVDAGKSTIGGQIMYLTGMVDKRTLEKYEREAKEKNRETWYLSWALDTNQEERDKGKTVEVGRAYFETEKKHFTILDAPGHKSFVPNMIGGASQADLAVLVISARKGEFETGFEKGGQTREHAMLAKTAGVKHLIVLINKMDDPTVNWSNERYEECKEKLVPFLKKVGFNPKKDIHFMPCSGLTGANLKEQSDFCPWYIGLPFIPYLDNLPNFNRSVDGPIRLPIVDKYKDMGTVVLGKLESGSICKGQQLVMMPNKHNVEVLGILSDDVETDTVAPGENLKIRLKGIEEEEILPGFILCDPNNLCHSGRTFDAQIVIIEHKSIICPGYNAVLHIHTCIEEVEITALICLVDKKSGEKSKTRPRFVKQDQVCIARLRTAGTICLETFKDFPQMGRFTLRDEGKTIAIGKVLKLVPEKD
T5 sequence (Q96SW2 whole entry): as the sequence (Q96SW2 whole entry) above
T5 sequence (Q16531 whole entry partner): as the sequence (Q16531 whole entry partner) above
How it was run: as §2

[1] = target: T6, human Cereblon WT GST-tagged protein (Homo sapiens, UniProt Q96SW2); test: CRBN-binding affinity, HTRF (CEREBLON BINDING kit); details: displacement of Thalidomide-Re reagent, 3 hours at room temperature
T6 construct: purchased CISBIO 64BDCRBNPEH
T6 sequence (Q96SW2 whole entry): as the sequence (Q96SW2 whole entry) above
How it was run: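 HTRF competition format: compound, GST-tagged wild-type human Cereblon, Thalidomide-Re tracer and GST Eu antibody were combined in PROTAC binding buffer. Binding was derived from emission at 620 nm relative to blank and solvent control wells.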

CK1α = target: T7, CK1α (Homo sapiens, UniProt P48729+Q96SW2); test: Western-blot assay, substrate protein in hPBMCs; assay type: cell-based; details: hPBMC cells, 24 hours, tested at 50 nM and 500 nM, table does not say which
T7 construct: endogenous in cells; host or cells: human PBMCs (Milecell Biotechnologies)
T7 sequence (P48729 whole entry): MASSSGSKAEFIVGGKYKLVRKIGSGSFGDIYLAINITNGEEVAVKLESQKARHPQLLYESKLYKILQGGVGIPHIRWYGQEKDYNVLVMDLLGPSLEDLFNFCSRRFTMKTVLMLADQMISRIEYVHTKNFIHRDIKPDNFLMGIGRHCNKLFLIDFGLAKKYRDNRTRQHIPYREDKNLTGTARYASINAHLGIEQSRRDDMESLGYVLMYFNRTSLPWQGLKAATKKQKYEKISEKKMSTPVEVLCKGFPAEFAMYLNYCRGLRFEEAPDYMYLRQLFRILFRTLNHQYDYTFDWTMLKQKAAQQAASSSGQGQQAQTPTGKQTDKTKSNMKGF
T7 sequence (Q96SW2 whole entry): as the sequence (Q96SW2 whole entry) above
T7 sequence (Q16531 whole entry partner): as the sequence (Q16531 whole entry partner) above
How it was run: as §2

MV-4-11 = test: Half inhibitory concentration (IC50) against tumor cells, Cell Counting Kit-8; assay type: cell-based; details: Homo sapiens, MV4-11, CCK-8, 96 h treatment, read-out: inhibitory activity (IC50, nM) against tumor cells proliferation
Procedure: The tumor cells used herein were cultured in a cell culture medium listed in table A at 37° C. in an incubator with 5% CO2.
After the cells were treated with the compounds of the present disclosure for a period of time, the cell viability detection reagent was added to the culture medium for cell viability assessment according to the instructions provided with the CCK-8 kit. […] The growth inhibition of the compounds of the present disclosure on cells was plotted by Prism Graphpad software, and the IC50 values of the compounds of the present disclosure were calculated therefrom.

IC50 [1] [nM]	IC50 (MV-4-11) [nM]	Compound	substrate protein remaining % (IKZF3)	substrate protein remaining % (IKZF1)	substrate protein remaining % (Wee1)	substrate protein remaining % (IKZF2)	substrate protein remaining % (GSPT1)	substrate protein remaining % (CK1α)
< 500		O=C1CCC(N2Cc3cc(SC4CN(C(c5ccccn5)c5ccccn5)C4)ccc3C2=O)C(=O)N1 (stereo not shown) [GT-06811, 3-(5-((1-(di(pyridin-2-yl)methyl)azetidin-3-yl)thio)-1-oxoisoindolin-2-yl)piperidine-2,6-dione]	A (0%≤ substrate protein remaining % ≤80%)	A (0%≤ substrate protein remaining % ≤80%)	A (0%≤ substrate protein remaining % ≤80%)	A (0%≤ substrate protein remaining % ≤80%)	A (0%≤ substrate protein remaining % ≤80%)	
500 to 1000		O=C1CCC(N2Cc3cc(OC4CN(CC5=C(c6ccc(F)cc6)CCCC5)C4)ccc3C2=O)C(=O)N1 (stereo not shown) [GT-06302, 3-(5-((1-((4′-fluoro-3,4,5,6-tetrahydro-[1,1′-biphenyl]-2-yl)methyl)azetidin-3-yl)oxy)-1-oxoisoindolin-2-yl)piperidine-2,6-dione]	A (0%≤ substrate protein remaining % ≤80%)	A (0%≤ substrate protein remaining % ≤80%)	A (0%≤ substrate protein remaining % ≤80%)	A (0%≤ substrate protein remaining % ≤80%)	A (0%≤ substrate protein remaining % ≤80%)	A (0%≤ substrate protein remaining % ≤80%)
< 500	500 to 1000	O=C1CCC(N2Cc3cc(SC4CCCN(C(c5ccccc5)c5ccccc5)CC4)ccc3C2=O)C(=O)N1 (stereo not shown) [GT-06645, 3-(5-((1-benzhydrylazepan-4-yl)thio)-1-oxoisoindolin-2-yl)piperidine-2,6-dione]					A (0%≤ substrate protein remaining % ≤80%)	
< 500		CC1(C)CCC(CN2CC(Sc3ccc4c(c3)CN(C3CCC(=O)NC3=O)C4=O)C2)=C(c2ccc(F)cc2)C1 (stereo not shown) [GT-03457, 3-(5-((1-((4′-fluoro-5,5-dimethyl-3,4,5,6-tetrahydro-[1,1′-biphenyl]-2-yl)methyl)azetidin-3-yl)thio)-1-oxoisoindolin-2-yl)piperidine-2,6-dione]	A (0%≤ substrate protein remaining % ≤80%)	A (0%≤ substrate protein remaining % ≤80%)		A (0%≤ substrate protein remaining % ≤80%)	A (0%≤ substrate protein remaining % ≤80%)	A (0%≤ substrate protein remaining % ≤80%)
500 to 1000		CC1(C)CC(c2ccc(Cl)cc2)=C(CN2CC(Sc3ccc4c(c3)CN(C3CCC(=O)NC3=O)C4=O)C2)CO1 (stereo not shown) [GT-06514, 3-(5-((1-((4-(4-chlorophenyl)-6,6-dimethyl-5,6-dihydro-2H-pyran-3-yl)methyl)azetidin-3-yl)thio)-1-oxoisoindolin-2-yl)piperidine-2,6-dione]	A (0%≤ substrate protein remaining % ≤80%)	A (0%≤ substrate protein remaining % ≤80%)	A (0%≤ substrate protein remaining % ≤80%)	A (0%≤ substrate protein remaining % ≤80%)	A (0%≤ substrate protein remaining % ≤80%)	
500 to 1000		CC1(C)CCC(CN2CC(Oc3ccc4c(c3)CN(C3CCC(=O)NC3=O)C4=O)C2)=C(c2ccc(F)cc2)C1 (stereo not shown) [GT-03459, 3-(5-((1-((4′-fluoro-5,5-dimethyl-3,4,5,6-tetrahydro-[1,1′-biphenyl]-2-yl)methyl)azetidin-3-yl)oxy)-1-oxoisoindolin-2-yl)piperidine-2,6-dione]	A (0%≤ substrate protein remaining % ≤80%)	A (0%≤ substrate protein remaining % ≤80%)	A (0%≤ substrate protein remaining % ≤80%)	A (0%≤ substrate protein remaining % ≤80%)	A (0%≤ substrate protein remaining % ≤80%)	A (0%≤ substrate protein remaining % ≤80%)
	500 to 1000	CC1(C)CCC(CN2CCC(Sc3ccc4c(c3)CN(C3CCC(=O)NC3=O)C4=O)C(F)(F)C2)=C(c2ccc(Cl)cc2)C1 (stereo not shown) [GT-06960, 3-(5-((1-((4′-chloro-5,5-dimethyl-3,4,5,6-tetrahydro-[1,1′-biphenyl]-2-yl)methyl)-3,3-difluoropiperidin-4-yl)thio)-1-oxoisoindolin-2-yl)piperidine-2,6-dione]			A (0%≤ substrate protein remaining % ≤80%)		A (0%≤ substrate protein remaining % ≤80%)	A (0%≤ substrate protein remaining % ≤80%)
< 500		O=C1CCC(N2Cc3cc(SC4CN(CC5=C(c6ccc(Cl)cc6)CCOC5)C4)ccc3C2=O)C(=O)N1 (stereo not shown) [GT-06351, 3-(5-((1-((4-(4-chlorophenyl)-5,6-dihydro-2H-pyran-3-yl)methyl)azetidin-3-yl)thio)-1-oxoisoindolin-2-yl)piperidine-2,6-dione]	A (0%≤ substrate protein remaining % ≤80%)	A (0%≤ substrate protein remaining % ≤80%)		A (0%≤ substrate protein remaining % ≤80%)	A (0%≤ substrate protein remaining % ≤80%)	A (0%≤ substrate protein remaining % ≤80%)
500 to 1000		O=C1CCC(N2Cc3cc(OC4CN(Cc5ccc(-c6ccncc6)nc5)C4)ccc3C2=O)C(=O)N1 (stereo not shown) [GT-06809, 3-(5-((1-([2,4′-bipyridin]-5-ylmethyl)azetidin-3-yl)oxy)-1-oxoisoindolin-2-yl)piperidine-2,6-dione]	A (0%≤ substrate protein remaining % ≤80%)	A (0%≤ substrate protein remaining % ≤80%)	A (0%≤ substrate protein remaining % ≤80%)	A (0%≤ substrate protein remaining % ≤80%)	A (0%≤ substrate protein remaining % ≤80%)	A (0%≤ substrate protein remaining % ≤80%)
< 500		O=C1CCC(N2Cc3cc(SC4CN(Cc5cnc(-c6ccccc6)cn5)C4)ccc3C2=O)C(=O)N1 (stereo not shown) [GT-06350, 3-(1-oxo-5-((1-((5-phenylpyrazin-2-yl)methyl)azetidin-3-yl)thio)isoindolin-2-yl)piperidine-2,6-dione]	A (0%≤ substrate protein remaining % ≤80%)	A (0%≤ substrate protein remaining % ≤80%)		A (0%≤ substrate protein remaining % ≤80%)	A (0%≤ substrate protein remaining % ≤80%)	A (0%≤ substrate protein remaining % ≤80%)
500 to 1000		O=C1CCC(N2Cc3cc(SC4CN(C(c5cccc(F)c5)c5cccc(F)c5)C4)ccc3C2=O)C(=O)N1 (stereo not shown) [GT-06349, 3-(5-((1-(bis(3-fluorophenyl)methyl)azetidin-3-yl)thio)-1-oxoisoindolin-2-yl)piperidine-2,6-dione]	A (0%≤ substrate protein remaining % ≤80%)	A (0%≤ substrate protein remaining % ≤80%)		A (0%≤ substrate protein remaining % ≤80%)	A (0%≤ substrate protein remaining % ≤80%)	A (0%≤ substrate protein remaining % ≤80%)
1000 to 1900		O=C1CCC(N2Cc3cc(OC4CCNCC4)ccc3C2=O)C(=O)N1 (stereo not shown) [GT-03612, 3-(1-oxo-5-(piperidin-4-yloxy)isoindolin-2-yl)piperidine-2,6-dione]	A (0%≤ substrate protein remaining % ≤80%)	A (0%≤ substrate protein remaining % ≤80%)	A (0%≤ substrate protein remaining % ≤80%)	A (0%≤ substrate protein remaining % ≤80%)	A (0%≤ substrate protein remaining % ≤80%)	A (0%≤ substrate protein remaining % ≤80%)
1000 to 1900	500 to 1000	CC1(C)CCC(C(=O)N2CCC3(CCC(Sc4ccc5c(c4)CN(C4CCC(=O)NC4=O)C5=O)CC3)CC2)=C(c2ccc(Cl)cc2)C1 (stereo not shown) [GT-07016, 3-(5-((3-(4′-chloro-5,5-dimethyl-3,4,5,6-tetrahydro-[1,1′-biphenyl]-2-carbonyl)-3-azaspiro[5.5]undecan-9-yl)thio)-1-oxoisoindolin-2-yl)piperidine-2,6-dione]						
